Measurements taken from patent US11780812B2, “Oxopyridine derivatives useful as aminocarboxymuconate semialdehyde decarboxylase (ACMSD) inhibitors” (OrsoBio, Inc., priority 2016, dated 2023).

biological target: human ACMSD (Homo sapiens (Human), UniProt Q8TDX5); experiment: Human ACMSD-1 inhibitor assay (coupled 3-HAO/ACMSD, absorbance at 360 nm); conditions: read-out: hACMSD IC50; human ACMSD 6 μg/ml, 50 mM MES pH 6.0, 28° C., four-parameter dose-response fit
Sequence (Q8TDX5 whole entry): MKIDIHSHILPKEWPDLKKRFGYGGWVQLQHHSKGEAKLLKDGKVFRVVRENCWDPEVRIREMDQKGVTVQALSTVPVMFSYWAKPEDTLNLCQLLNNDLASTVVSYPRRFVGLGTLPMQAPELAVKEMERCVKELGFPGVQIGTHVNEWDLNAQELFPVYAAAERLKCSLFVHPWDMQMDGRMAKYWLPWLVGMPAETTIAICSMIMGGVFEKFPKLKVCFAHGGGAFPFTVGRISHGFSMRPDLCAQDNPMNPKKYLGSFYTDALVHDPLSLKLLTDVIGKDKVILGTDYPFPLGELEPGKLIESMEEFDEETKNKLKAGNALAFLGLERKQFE

Structure (SMILES)	IC50 [nM]
N#Cc1c(C2CC2)cc(=O)[nH]c1SCC(=O)O [Ex. 14, 2-((3-cyano-4-cyclopropyl-6-oxo-1,6-dihydropyridin-2-yl)thio)acetic acid]	7300
N#Cc1c(C(F)(F)F)cc(=O)[nH]c1SCc1cc(F)cc(C(=O)O)c1 [Ex. 20, 3-(((3-cyano-6-oxo-4-(trifluoromethyl)-1,6-dihydropyridin-2-yl)thio)methyl)-5-fluorobenzoic acid]	350
N#Cc1c(-c2ccsc2)cc(=O)[nH]c1SCc1cccc(C(=O)O)c1 [Ex. 36, 3-((3-cyano-6-oxo-4-(thiophen-3-yl)-1,6-dihydropyridin-2-ylthio)methyl)benzoic acid]	160
CCc1cc(=O)[nH]c(SCC(=O)O)c1C#N [Ex. 9, 2-((3-cyano-4-ethyl-6-oxo-1,6-dihydropyridin-2-yl)thio)acetic acid]	3400
N#Cc1c(Cc2ccccc2)cc(=O)[nH]c1SCC(=O)O [Ex. 18, 2-((4-benzyl-3-cyano-6-oxo-1,6-dihydropyridin-2-yl)thio)acetic acid]	36
N#Cc1c(SCC(=O)O)[nH]c(=O)c(F)c1C(F)(F)F [Ex. 17, 2-(3-cyano-5-fluoro-6-oxo-4-(trifluoromethyl)-1,6-dihydropyridin-2-ylthio)acetic acid]	9
N#Cc1c(SCC(=O)O)[nH]c(=O)c(Cl)c1C(F)(F)F [Ex. 38, 2-(5-chloro-3-cyano-6-oxo-4-(trifluoromethyl)-1,6-dihydropyridin-2-ylthio)acetic acid]	11
COc1c(C(F)(F)F)c(C#N)c(SCC(=O)O)[nH]c1=O [Ex. 46, 2-(3-cyano-5-methoxy-6-oxo-4-(trifluoromethyl)-1,6-dihydropyridin-2-ylthio)acetic acid]	8
N#Cc1c(SCc2cccc(C(=O)O)c2)[nH]c(=O)c(F)c1-c1ccccc1 [Ex. 30, 3-(((3-cyano-5-fluoro-6-oxo-4-phenyl-1,6-dihydropyridin-2-yl)thio)methyl)benzoic acid]	70
N#Cc1c(C(F)(F)F)cc(=O)[nH]c1SCc1nnn[nH]1 [Ex. 43, 2-(((1H-tetrazol-5-yl)methyl)thio)-6-oxo-4-(trifluoromethyl)-1,6-dihydropyridine-3-carbonitrile]	4
CC(Sc1[nH]c(=O)cc(C(F)(F)F)c1C#N)C(=O)O (stereo not shown) [Ex. 7, 2-(3-cyano-6-oxo-4-(trifluoromethyl)-1,6-dihydropyridin-2-ylthio)propanoic acid]	271
Cc1c(-c2ccccc2)c(C#N)c(SCc2cccc(C(=O)O)c2)[nH]c1=O [Ex. 31, 3-((3-cyano-5-methyl-6-oxo-4-phenyl-1,6-dihydropyridin-2-ylthio)methyl)benzoic acid]	> 10000
N#Cc1c(C(F)(F)F)cc(=O)[nH]c1SCc1cccc(C(=O)O)c1 [Ex. 8, 3-((3-cyano-6-oxo-4-(trifluoromethyl)-1,6-dihydropyridin-2-ylthio)methyl)benzoic acid]	1610
N#Cc1c(C(F)(F)F)cc(=O)[nH]c1SCc1cc(C(=O)O)ccc1F [Ex. 19, 3-((3-cyano-6-oxo-4-(trifluoromethyl)-1,6-dihydropyridin-2-ylthio)methyl)-4-fluorobenzoic acid]	230
N#Cc1c(C(F)(F)F)cc(=O)[nH]c1SCc1cccc(C(=O)O)c1F [Ex. 22, 3-(((3-cyano-6-oxo-4-(trifluoromethyl)-1,6-dihydropyridin-2-yl)thio)methyl)-2-fluorobenzoic acid]	830
CCCc1cc(=O)[nH]c(SCC(=O)O)c1C#N [Ex. 6, 2-((3-cyano-6-oxo-4-propyl-1,6-dihydropyridin-2-yl)thio)acetic acid]	3050
N#Cc1c(C(F)(F)F)cc(=O)[nH]c1SCc1cc(C(=O)O)ccc1Cl [Ex. 3, 4-chloro-3-((3-cyano-6-oxo-4-(trifluoromethyl)-1,6-dihydropyridin-2-ylthio)methyl)benzoic acid]	158
N#Cc1c(C2CCCCC2)cc(=O)[nH]c1SCc1cccc(C(=O)O)c1 [Ex. 24, 3-(((3-cyano-4-cyclohexyl-6-oxo-1,6-dihydropyridin-2-yl)thio)methyl)benzoic acid]	470
Cc1cc(=O)[nH]c(SCc2cccc(C(=O)O)c2)c1C#N [Ex. 56, 3-(((3-cyano-4-methyl-6-oxo-1,6-dihydropyridin-2-yl)thio)methyl)benzoic acid]	6750
Cc1cccc(-c2cc(=O)[nH]c(SCc3cccc(C(=O)O)c3)c2C#N)c1 [Ex. 25, 3-(((3-cyano-6-oxo-4-(m-tolyl)-1,6-dihydropyridin-2-yl)thio)methyl)benzoic acid]	6
COCc1cc(=O)[nH]c(SCC(=O)O)c1C#N [Ex. 11, 2-(3-cyano-4-(methoxymethyl)-6-oxo-1,6-dihydropyridin-2-ylthio)acetic acid]	9000
N#Cc1c(C(F)(F)F)cc(=O)[nH]c1SCC(=O)O [Ex. 1, 2-((3-cyano-6-oxo-4-(trifluoromethyl)-1,6-dihydropyridin-2-yl)thio)acetic acid]	6
N#Cc1c(C(F)F)cc(=O)[nH]c1SCC(=O)O [Ex. 4, 2-((3-cyano-4-(difluoromethyl)-6-oxo-1,6-dihydropyridin-2-yl)thio)acetic acid]	118
N#Cc1c(-c2ccccc2)cc(=O)[nH]c1SCC(=O)O [Ex. 12, 2-((3-cyano-6-oxo-4-phenyl-1,6-dihydropyridin-2-yl)thio)acetic acid]	7000
N#Cc1c(-c2ccncc2)cc(=O)[nH]c1SCc1cccc(C(=O)O)c1 [Ex. 26, 3-(((3-cyano-6-oxo-1,6-dihydro-[4,4′-bipyridin]-2-yl)thio)methyl)benzoic acid]	29
N#Cc1c(SCc2nnn[nH]2)[nH]c(=O)c(Cl)c1C(F)(F)F [Ex. 40, 2-((1H-tetrazol-5-yl)methylthio)-5-chloro-6-oxo-4-(trifluoromethyl)-1,6-dihydropyridine-3-carbonitrile]	4
Cc1c(C(F)(F)F)c(C#N)c(SCc2nnn[nH]2)[nH]c1=O [Ex. 47, 2-(((1H-tetrazol-5-yl)methyl)thio)-5-methyl-6-oxo-4-(trifluoromethyl)-1,6-dihydropyridine-3-carbonitrile]	7
N#Cc1c(-c2ccccc2)cc(=O)[nH]c1SCc1cccc(C(=O)O)c1 [Ex. 15, 3-(((3-cyano-6-oxo-4-phenyl-1,6-dihydropyridin-2-yl)thio)methyl)benzoic acid]	56

More lines, now with the values ahead:

IC50 [nM]	Structure (SMILES)
2	N#Cc1c(Cc2ccccc2)cc(=O)[nH]c1SCc1nn[nH]n1 [Ex. 53, 2-(((2H-tetrazol-5-yl)methyl)thio)-4-benzyl-6-oxo-1,6-dihydropyridine-3-carbonitrile]
3	N#Cc1c(SCc2cccc(C(=O)O)c2)[nH]c(=O)c(Cl)c1-c1ccccc1 [Ex. 41, 3-(((5-chloro-3-cyano-6-oxo-4-phenyl-1,6-dihydropyridin-2-yl)thio)methyl)benzoic acid]
510	Cc1ccc(C(=O)O)cc1CSc1[nH]c(=O)cc(C(F)(F)F)c1C#N [Ex. 44, 3-((3-cyano-6-oxo-4-(trifluoromethyl)-1,6-dihydropyridin-2-ylthio)methyl)-4-methylbenzoic acid]
3	N#Cc1c(-c2ccccc2)cc(=O)[nH]c1SCc1cncc(C(=O)O)c1 [Ex. 34, 5-(((3-cyano-6-oxo-4-phenyl-1,6-dihydropyridin-2-yl)thio)methyl)nicotinic acid]
50	N#Cc1c(-c2cccnc2)cc(=O)[nH]c1SCc1cccc(C(=O)O)c1 [Ex. 37, 3-(((3′-cyano-6′-oxo-1′,6′-dihydro-[3,4′-bipyridin]-2′-yl)thio)methyl)benzoic acid]
130	O=c1cc(C(F)(F)F)cc(SCc2nnn[nH]2)[nH]1 [Ex. 52, 6-((1H-tetrazol-5-yl)methylthio)-4-(trifluoromethyl)pyridin-2(1H)-one]
190	N#Cc1c(-c2ccccc2)cc(=O)[nH]c1SCc1cccc(C(=O)O)n1 [Ex. 33, 6-(((3-cyano-6-oxo-4-phenyl-1,6-dihydropyridin-2-yl)thio)methyl)picolinic acid]
200	N#Cc1c(CC2CCCCC2)cc(=O)[nH]c1SCc1cccc(C(=O)O)c1 [Ex. 35, 3-(((3-cyano-4-(cyclohexylmethyl)-6-oxo-1,6-dihydropyridin-2-yl)thio)methyl)benzoic acid]
6	N#Cc1c(-c2cccs2)cc(=O)[nH]c1SCc1cccc(-c2nnn[nH]2)c1 [Ex. 49, 2-((3-(1H-tetrazol-5-yl)benzyl)thio)-6-oxo-4-(thiophen-2-yl)-1,6-dihydropyridine-3-carbonitrile]
3	Cc1cccc(-c2cc(=O)[nH]c(SCc3cccc(-c4nnn[nH]4)c3)c2C#N)c1 [Ex. 55, 2-((3-(1H-tetrazol-5-yl)benzyl)thio)-6-oxo-4-(m-tolyl)-1,6-dihydropyridine-3-carbonitrile]
3	N#Cc1c(-c2ccccc2)cc(=O)[nH]c1SCc1cccc(-c2nnn[nH]2)c1 [Ex. 50, 2-((3-(1H-tetrazol-5-yl)benzyl)thio)-6-oxo-4-phenyl-1,6-dihydropyridine-3-carbonitrile]
170	N#Cc1c(-c2ccccn2)cc(=O)[nH]c1SCc1cccc(C(=O)O)c1 [Ex. 32, 3-(((3′-cyano-6′-oxo-1′,6′-dihydro-[2,4′-bipyridin]-2′-yl)thio)methyl)benzoic acid]
20	N#Cc1c(C(F)(F)F)cc(=O)[nH]c1SC(F)(F)C(=O)O [Ex. 28, 2-((3-cyano-6-oxo-4-(trifluoromethyl)-1,6-dihydropyridin-2-yl)thio)-2,2-difluoroacetic acid]
4	N#Cc1c(C(F)(F)F)cc(=O)[nH]c1SCc1cc(-c2nnn[nH]2)ccc1Cl [Ex. 45, 2-(2-chloro-5-(1H-tetrazol-5-yl)benzylthio)-6-oxo-4-(trifluoromethyl)-1,6-dihydropyridine-3-carbonitrile]
9	N#Cc1c(-c2ccsc2)cc(=O)[nH]c1SCc1cccc(-c2nnn[nH]2)c1 [Ex. 54, 2-(3-(1H-tetrazol-5-yl)benzylthio)-6-oxo-4-(thiophen-3-yl)-1,6-dihydropyridine-3-carbonitrile]
